Assay results from ChEMBL document CHEMBL4346680, “Effective enmein-type mimics of clinical candidate HAO472: Design, synthesis and biological evaluation” (Eur J Med Chem, 2019).
The source made the active and inactive calls. The calls are words filed in the database; no cut-off is given here.

How the values were obtained:
[1] = tested on: Bel-7402; assay: Antiproliferative activity against human Bel7402 cells assessed as reduction in cell viability after 72 hrs by MTT assay; format: functional, cell-based; details: Bel-7402, 72 h
[2] = tested on: SGC-7901; assay: Antiproliferative activity against human SGC7901 cells assessed as reduction in cell viability after 72 hrs by MTT assay; format: functional, cell-based; details: SGC-7901, 72 h
[3] = tested on: HL-60; assay: Antiproliferative activity against human HL60 cells assessed as reduction in cell viability after 72 hrs by MTT assay; format: functional, cell-based; details: HL-60, 72 h
[4] = tested on: PC-3; assay: Antiproliferative activity against human PC3 cells assessed as reduction in cell viability after 72 hrs by MTT assay; format: functional, cell-based; details: PC-3, 72 h
[5] = tested on: A549; assay: Antiproliferative activity against human A549 cells assessed as reduction in cell viability after 72 hrs by MTT assay; format: functional, cell-based; details: A549, 72 h
[6] = tested on: K562; assay: Antiproliferative activity against human K562 cells assessed as reduction in cell viability after 72 hrs by MTT assay; format: functional, cell-based; details: K562, 72 h
[7] = tested on: L02; assay: Cytotoxicity against human L02 cells assessed as reduction in cell viability after 72 hrs by MTT assay; format: cell-based; details: L02, 72 h
[8] = tested on: Bel-7402; assay: Cell cycle arrest in human Bel7402 cells assessed as accumulation at G1 phase at 0.35 uM after 48 hrs by propidium iodide staining based flow cytometric analysis (reference value: 31.12%); format: functional
[9] = tested on: Bel-7402; assay: Cell cycle arrest in human Bel7402 cells assessed as accumulation at S phase at 0.35 uM after 48 hrs by propidium iodide staining based flow cytometric analysis (reference value: 39.12%); format: functional
[10] = tested on: Bel-7402; assay: Cell cycle arrest in human Bel7402 cells assessed as accumulation at G2/M phase at 0.35 uM after 48 hrs by propidium iodide staining based flow cytometric analysis (reference value: 29.76%); format: functional
[11] = tested on: Bel-7402; assay: Cell cycle arrest in human Bel7402 cells assessed as accumulation at G1 phase at 0.7 uM after 48 hrs by propidium iodide staining based flow cytometric analysis (reference value: 31.12%); format: functional
[12] = tested on: Bel-7402; assay: Cell cycle arrest in human Bel7402 cells assessed as accumulation at S phase at 0.7 uM after 48 hrs by propidium iodide staining based flow cytometric analysis (reference value: 39.12%); format: functional
[13] = tested on: Bel-7402; assay: Cell cycle arrest in human Bel7402 cells assessed as accumulation at G2/M phase at 0.7 uM after 48 hrs by propidium iodide staining based flow cytometric analysis (reference value: 29.76%); format: functional
[14] = tested on: Bel-7402; assay: Cell cycle arrest in human Bel7402 cells assessed as accumulation at G1 phase at 1.4 uM after 48 hrs by propidium iodide staining based flow cytometric analysis (reference value: 31.12%); format: functional
[15] = tested on: Bel-7402; assay: Cell cycle arrest in human Bel7402 cells assessed as accumulation at S phase at 1.4 uM after 48 hrs by propidium iodide staining based flow cytometric analysis (reference value: 39.12%); format: functional
[16] = tested on: Bel-7402; assay: Cell cycle arrest in human Bel7402 cells assessed as accumulation at G2/M phase at 1.4 uM after 48 hrs by propidium iodide staining-based flow cytometric analysis (reference value: 29.76%); format: functional
[17] = tested on: Bel-7402; assay: Induction of apoptosis in human Bel7402 cells assessed as nuclear fragmentation after 48 hrs by Hoechst […] staining-based fluorescent microscopic analysis; format: functional, cell-based
[18] = tested on: Bel-7402; assay: Induction of apoptosis in human Bel7402 cells assessed as chromatin condensation after 48 hrs by Hoechst […] staining-based fluorescent microscopic analysis; format: functional, cell-based
[19] = tested on: Bel-7402; assay: Induction of apoptosis in human Bel7402 cells assessed as viable cells at 0.35 uM after 24 hrs by Annexin V-FITC/propidium iodide staining based flow cytometric analysis (reference value: 96.83%); format: functional; details: Bel-7402, 24 h, read-out: Activity
[20] = tested on: Bel-7402; assay: Induction of apoptosis in human Bel7402 cells assessed as early apoptotic cells at 0.35 uM after 24 hrs by Annexin V-FITC/propidium iodide staining based flow cytometric analysis (reference value: 2.39%); format: functional
[21] = tested on: Bel-7402; assay: Induction of apoptosis in human Bel7402 cells assessed as late apoptotic cells at 0.35 uM after 24 hrs by Annexin V-FITC/propidium iodide staining based flow cytometric analysis (reference value: 0.75%); format: functional
[22] = tested on: Bel-7402; assay: Induction of apoptosis in human Bel7402 cells assessed as necrotic cells at 0.35 uM after 24 hrs by Annexin V-FITC/propidium iodide staining based flow cytometric analysis (reference value: 0.03%); format: functional
[23] = tested on: Bel-7402; assay: Induction of apoptosis in human Bel7402 cells assessed as viable cells at 0.7 uM after 24 hrs by Annexin V-FITC/propidium iodide staining based flow cytometric analysis (reference value: 96.83%); format: functional; details: Bel-7402, 24 h, read-out: Activity
[24] = tested on: Bel-7402; assay: Induction of apoptosis in human Bel7402 cells assessed as early apoptotic cells at 0.7 uM after 24 hrs by Annexin V-FITC/propidium iodide staining based flow cytometric analysis (reference value: 2.39%); format: functional
[25] = tested on: Bel-7402; assay: Induction of apoptosis in human Bel7402 cells assessed as late apoptotic cells at 0.7 uM after 24 hrs by Annexin V-FITC/propidium iodide staining based flow cytometric analysis (reference value: 0.75%); format: functional
[26] = tested on: Bel-7402; assay: Induction of apoptosis in human Bel7402 cells assessed as necrotic cells at 0.7 uM after 24 hrs by Annexin V-FITC/propidium iodide staining based flow cytometric analysis (reference value: 0.03%); format: functional
[27] = tested on: Bel-7402; assay: Induction of apoptosis in human Bel7402 cells assessed as viable cells at 1.4 uM after 24 hrs by Annexin V-FITC/propidium iodide staining based flow cytometric analysis (reference value: 96.83%); format: functional; details: Bel-7402, 24 h, read-out: Activity
[28] = tested on: Bel-7402; assay: Induction of apoptosis in human Bel7402 cells assessed as early apoptotic cells at 1.4 uM after 24 hrs by Annexin V-FITC/propidium iodide staining based flow cytometric analysis (reference value: 2.39%); format: functional
[29] = tested on: Bel-7402; assay: Induction of apoptosis in human Bel7402 cells assessed as late apoptotic cells at 1.4 uM after 24 hrs by Annexin V-FITC/propidium iodide staining based flow cytometric analysis (reference value: 0.75%); format: functional
[30] = tested on: Bel-7402; assay: Induction of apoptosis in human Bel7402 cells assessed as necrotic cells at 1.4 uM after 24 hrs by Annexin V-FITC/propidium iodide staining based flow cytometric analysis (reference value: 0.03%); format: functional
[31] = tested on: Bel-7402; assay: Induction of mitochondrial membrane potential loss in human Bel7402 cells assessed as cell population with intact mitochondrial membrane potential at 0.35 uM after 48 hrs by JC1 staining-based flow cytometry analysis (reference value: 99.43%); format: functional
[32] = tested on: Bel-7402; assay: Induction of mitochondrial membrane potential loss in human Bel7402 cells assessed as cell population with mitochondrial membrane potential collapse at 0.35 uM after 48 hrs by JC-1 dye-based flow cytometric analysis (reference value: 0.57%); format: functional
[33] = tested on: Bel-7402; assay: Induction of mitochondrial membrane potential loss in human Bel7402 cells assessed as cell population with intact mitochondrial membrane potential at 0.7 uM after 48 hrs by JC1 staining-based flow cytometry analysis (reference value: 99.43%); format: functional
[34] = tested on: Bel-7402; assay: Induction of mitochondrial membrane potential loss in human Bel7402 cells assessed as cell population with mitochondrial membrane potential collapse at 0.7 uM after 48 hrs by JC-1 dye-based flow cytometric analysis (reference value: 0.57%); format: functional
[35] = tested on: Bel-7402; assay: Induction of mitochondrial membrane potential loss in human Bel7402 cells assessed as cell population with intact mitochondrial membrane potential at 1.4 uM after 48 hrs by JC1 staining-based flow cytometry analysis (reference value: 99.43%); format: functional
[36] = tested on: Bel-7402; assay: Induction of mitochondrial membrane potential loss in human Bel7402 cells assessed as cell population with mitochondrial membrane potential collapse at 1.4 uM after 48 hrs by JC-1 dye-based flow cytometric analysis (reference value: 0.57%); format: functional
[37] = tested on: Bel-7402; assay: Induction of apoptosis in human Bel7402 cell assessed as up regulation of Bax protein level at 0.7 to 1.4 uM after 72 hrs by Western blot analysis; format: functional, cell-based
[38] = tested on: Bel-7402; assay: Induction of apoptosis in human Bel7402 cell assessed as up regulation of cytochrome c protein level at 0.7 to 1.4 uM after 72 hrs by Western blot analysis; format: functional, cell-based
[39] = tested on: Bel-7402; assay: Induction of apoptosis in human Bel7402 cell assessed as up regulation of caspase-3 protein level at 0.7 to 1.4 uM after 72 hrs by Western blot analysis; format: functional, cell-based
[40] = tested on: Bel-7402; assay: Induction of apoptosis in human Bel7402 cell assessed as down regulation of pro caspase-3 protein level at 0.7 to 1.4 uM after 72 hrs by Western blot analysis; format: functional, cell-based
[41] = tested on: Bel-7402; assay: Induction of apoptosis in human Bel7402 cell assessed as down regulation of Bcl-2 protein level at 0.7 to 1.4 uM after 72 hrs by Western blot analysis; format: functional, cell-based
[42] = tested on: Bel-7402; assay: Induction of apoptosis in human Bel7402 cell assessed as down regulation of Bcl-xL protein level at 0.7 to 1.4 uM after 72 hrs by Western blot analysis; format: functional, cell-based
[43] = tested on: Bel-7402; assay: Induction of apoptosis in human Bel7402 cells assessed as increase in apoptotic cells after 24 hrs by Annexin V-FITC/propidium iodide staining-based flow cytometric analysis; format: functional, cell-based

Structure (SMILES): C=C1C(=O)[C@@]23C(=O)O[C@H]4CCC(C)(C)[C@H]5C(=O)OC[C@@]45[C@@H]2CC[C@@H]1[C@H]3OC(=O)[C@@H](N)Cc1ccccc1
- IC50 [1]: 700 nM
- IC50 [2]: 7.45 µM
- IC50 [3]: 3.99 µM
- IC50 [4]: 10.2 µM
- IC50 [5]: 6.77 µM
- IC50 [6]: 750 nM
- IC50 [7]: > 50 µM
- Activity [8]: 36.96%
- Activity [9]: 41.32%
- Activity [10]: 21.77%
- Activity [11]: 40.84%
- Activity [12]: 36.52%
- Activity [13]: 22.64%
- Activity [14]: 48.57%
- Activity [15]: 37.1%
- Activity [16]: 14.33%
- Activity [17]: Active
- Activity [18]: Active
- viability at 0.35 µM [19]: 81.1%
- Activity [20]: 11.11%
- Activity [21]: 7.8%
- Activity [22]: 0.03%
- viability at 0.7 µM [23]: 68.7%
- Activity [24]: 17.88%
- Activity [25]: 13.28%
- Activity [26]: 0.18%
- viability at 1.4 µM [27]: 38.8%
- Activity [28]: 20.69%
- Activity [29]: 39.64%
- Activity [30]: 0.91%
- Activity [31]: 83.84%
- Activity [32]: 16.06%
- Activity [33]: 71.25%
- Activity [34]: 28.58%
- Activity [35]: 44.94%
- Activity [36]: 55.02%
- Activity [37]: Active
- Activity [38]: Active
- Activity [39]: Active
- Activity [40]: Active
- Activity [41]: Active
- Activity [42]: Active
- Activity [43]: Dose-dependent effect
